The melting point is the temperature of the solid-liquid transition.

The molecule `CCc1c2nc(-c3cc(S(C)(=O)=O)ccc3OCC(C)C)[nH]c(=O)c2nn1Cc1nccn1C` came in with a melting point of 253 to 254 °C.

`N#CC(CC1CCCCC1)c1ccc(Cl)cc1Cl` (stereo not drawn): the melting point was found to be 58.8 °C.

Take `O=C(O)CSCCCCCCNS(=O)(=O)c1ccc(Cl)cc1`: the melting point was in the range of 104 to 105 °C.

`CCCCn1c(=O)c(NC(=O)Nc2c(C(C)C)cccc2C(C)C)c(-c2cccc(OC)c2)c2cccnc21` gave a melting point of 178 to 181 °C.

The molecule `CCCCCC(=O)NC(C)(C)C(=O)O` gave a melting point of 141 to 143 °C.

As for `Cc1ccn2c(C)c(-c3ccc4sc(=O)n(Cc5cccnc5)c4c3)nc2c1`, the melting point is 201 to 202 °C.

`COc1cc(C(C)C)c2c(c1)S(=O)(=O)N(COC(=O)c1cccc(O)c1)C2=O`: the melting point fell in the range of 71 to 73 °C.

As to `CN(C)C(=O)c1nc(-c2cccnc2)nc2c1[nH]c(=O)n2-c1ccccc1`, the melting point was 250 to 252 °C.

For `CC(C)c1c(Cl)nc2ncnn2c1Cl`, the melting point stood at 119 °C.

Molecule `CCCCc1c2c(nn1CCC)c(N)nc1ccccc12` returned a melting point of 164 to 166 °C.

`CC(C)(C)OC(=O)N1CCC[C@H]1C(=O)N1CCN(C(=O)c2ccc(C#N)cc2)CC1` registered a melting point of 50 °C.

For the molecule `CC(C)Nc1nccc(C#Cc2ccc(F)cc2)n1`, the melting point lay in the range of 128 to 129 °C.

`COC(=O)C1N2C(=O)C(N3C(=O)c4ccccc4C3=O)C2SCC1(C)O` (stereo not drawn) registered a melting point of 203 °C.

Take `CCCCCCCC(=O)C=Cc1ccc(O)c(OC)c1`: the melting point worked out at 45 °C.

As for `CC#CCOc1ccc(S(=O)(=O)N(Cc2cccnc2)C2(C(=O)NO)CCCCC2)cc1`, the melting point lay within 179 to 181 °C.

For `N#Cc1ccc(N2C(=N)C3(CCCC3)NC2=O)cc1C(F)(F)F`, the melting point was 212 to 213 °C.

Consider `COc1nccc2c(C)c3[nH]c4ccncc4c3cc12`, for which the melting point was > 263 °C.

Molecule `COC(=O)C=Cc1cncc2ccccc12` yielded a melting point of 79 to 80 °C.

As to `COc1cc2ncnc(N3CCC(C(=O)CN4C=CC(C)=NS4(=O)=O)CC3)c2cc1OC`, the melting point lay in the range of 172 to 175 °C.

Consider `COc1ccc2c(c1)[nH]c1c(C)c(OS(=O)(=O)c3cccc4c(N(C)C)cccc34)ccc12`, for which the melting point was 174 °C.

`Cc1ccccc1C(=O)Nn1cc(-c2ccccc2)nc1S` had a melting point of 159 to 160 °C.

Molecule `COC1(O)C=C(O)C(C(O)C(=O)c2ccccc2)=CC1` (stereo not drawn) yielded a melting point of 192 to 193 °C.

The molecule `CCOC(=O)c1cn2c(cnc3ccccc32)n1` had a melting point of 184 to 187 °C.

In turn, `NC(=O)C1=C(O)C(NC(=S)c2ccccc2)C2CC3Sc4c(Cl)ccc(O)c4C(=O)C3=C(O)C2(O)C1=O` (stereo not drawn) gave a melting point of 222 °C.

`CCOP(=O)(OCC)c1c(C)c2c(c(C)c1-c1c(OC)ccc3ccccc13)COC2`: the melting point is 77.3 to 78.9 °C.

For `CC1(C)Oc2ccc(C#N)cc2C2C1OC(=O)CN2c1ccccc1` (stereo not drawn), the melting point was 241 to 243 °C.

`COc1cc2c(cc1OC)C(C(C)C)C(=O)CC2` (stereo not drawn) showed a melting point of 77 to 79 °C.

In turn, `Nc1cc(OCCOCP(=O)(O)O)nc(N)n1` returned a melting point of 279 °C.

As for `O=C1N=C(NN2CCCC2)SC1=Cc1cccc(-c2cc(F)c(O)c(C34CC5CC(CC(C5)C3)C4)c2)c1`, the melting point fell in the range of 293 to 296 °C.

The molecule `Cc1cc(-c2cc(C(F)(F)F)nn2-c2ccc(S(N)(=O)=O)c(F)c2)ccc1-c1ccco1` registered a melting point of 78 to 80 °C.

For the molecule `COc1cccc2c(O)c(C(=O)NCCCCN3CCN(C(c4ccccc4)c4ccccc4)CC3)cnc12`, the melting point was 209 to 212 °C.

On to `CNC(=O)c1cccc(NC(=O)Cc2cccc(Cl)c2)c1`, for which the melting point is 165 to 166 °C.

As to `CCc1nc2cccc(C(=O)OC)c2n1Cc1ccc(-c2ccccc2-c2nc(=O)s[nH]2)cc1`, the melting point was 203 to 205 °C.

The molecule `CN1Cc2ccccc2C(c2ccccc2)N=C1Cc1ccc(NS(C)(=O)=O)cc1` (stereo not drawn) yielded a melting point of 182 to 185 °C.

Regarding `O=S(=O)(O)COc1ccc(Cl)cc1Br`, the melting point was > 315 °C.

Regarding `COc1cccc2c1OC(COS(=O)(=O)c1ccc(C)cc1)CO2` (stereo not drawn), the melting point fell in the range of 66 to 68 °C.

`CCC(=O)C(Oc1cc(C#N)cc(C#N)c1)C(=O)OC` (stereo not drawn) had a melting point of 93 to 95 °C.

As for `NCc1c(CN(Cc2ccccc2)Cc2ccccc2)cccc1C(F)(F)C(F)(F)c1ccccc1`, the melting point fell in the range of 172 to 174 °C.

For `CN(C)CCOc1ccc(C=NCCN=Cc2ccc(OCCN(C)C)cc2O)c(O)c1`, the melting point lay in the range of 92 to 94 °C.

For the molecule `O=c1c2c(-c3ccc(O)cc3)n[nH]c2c2cccnc2n1-c1ccccc1`, the melting point was > 300 °C.

As to `COC[C@H]1CCCN1NC(=O)Nc1cccc2c1C(=O)c1c-2n[nH]c1-c1ccc(C(=O)N2CCNCC2)s1`, the melting point is > 300 °C.

`CCOP(=O)(OCC)C(O)=C1CCc2cc(CC3CCCC3)c(Cl)cc21` had a melting point of 126 °C.

Take `CCCCc1oc2ccccc2c1C(=O)c1ccc2c(Br)c(OCC(=O)O)ccc2c1`: the melting point is 163 to 165 °C.

For `Cc1ccccc1C(=O)c1ccc(CC(=O)O)n1C`, the melting point fell in the range of 133 to 135 °C.

As to `COC(=O)CCCC#Cc1cc(Cl)ccc1NS(=O)(=O)c1ccc2nc(N)oc2c1`, the melting point was found to be 135 °C.

`CC(C)N1C(=O)c2cnc(-c3ccccc3)nc2N(C(=O)CN2CCCCC2)c2ccccc21` returned a melting point of 152 to 154 °C.

`CC(C)(C)NC(=O)N1CCc2cc(S(=O)(=O)n3cc(-c4ccccc4)[nH]c3=O)ccc21` came in with a melting point of 222 to 223 °C.

The molecule `NC(=O)[C@H](O)[C@@H](O)[C@H](O)[C@H](O)CO` came in with a melting point of 109 to 111 °C.

In turn, `CCOC(=O)c1cn(-c2cc(N)c(F)cc2F)c2c(C)c(F)c(F)c(N)c2c1=O` showed a melting point of 134 to 135 °C.

Molecule `N#Cc1ccc(C2CC(=O)c3ccccc3N2)cc1` (stereo not drawn) registered a melting point of 206 to 208 °C.

Consider `COC(=O)c1cccc2cc(C)sc12`, for which the melting point fell in the range of 48 to 49 °C.

In the case of `COc1cc2c(cn1)OCC21C(=O)N(C(c2ccccc2)c2ccccc2)c2ccccc21` (stereo not drawn), the melting point lay within 177 to 178 °C.

With `O=[N+]([O-])c1ccccc1NN=Cc1ncc(C(F)(F)F)cc1Cl`, the melting point fell in the range of 127 to 135 °C.

The molecule `CCOC(=O)C(Br)C(=O)Nc1ccc(Cl)cc1` (stereo not drawn) gave a melting point of 117 to 119 °C.

On to `CC1(C)OCC([N+](=O)[O-])CO1`, for which the melting point was 60 to 61 °C.

In turn, `C#CCNC(=O)Oc1cccc2c1OC(C)(C)O2` had a melting point of 107 to 109 °C.

`CCCn1c(COCC)nc2c(N)nc3ccc(OC(=O)N4CCOCC4)cc3c21` yielded a melting point of 193 to 196 °C.

In turn, `Cc1cnc(-c2ccc(O)cc2)o1` displayed a melting point of 177 to 178 °C.

The molecule `CC(C)(C)OC(=O)Nc1ccc(C#Cc2ccc(OC(F)(F)F)cc2)cc1N` displayed a melting point of 167 to 169 °C.

As to `CCOCn1c(-c2sc(Cl)c(Cl)c2Cl)c(C#N)c(Br)c1C(F)(F)F`, the melting point was in the range of 85 to 87 °C.

`CSc1ncc(C=O)c(N)n1` showed a melting point of 184 to 186 °C.

`CCCCCc1cc2c(nc(O)n2CC2CCOCC2)c(N)n1`: the melting point is > 250 °C.

On to `COc1ccc(-c2oncc2CO)cc1`, for which the melting point lay within 57 to 58 °C.

For the molecule `O=C1N(CC2CN(Cc3ccccc3)CCO2)c2ccccc2C12COc1cc3c(cc12)OCCO3` (stereo not drawn), the melting point is 88 to 100 °C.

Take `O=C(Cc1c[nH]c2ccccc12)OCc1ccccc1`: the melting point lay within 71 to 72 °C.

The molecule `CC(C)(CCCCC(=O)CCCCC1(C(=O)O)CCC1)C(=O)O` had a melting point of 53 to 55 °C.

`O=C1C(CCO)Oc2cc([N+](=O)[O-])ccc2N1Cc1ccccc1Cl` (stereo not drawn) returned a melting point of 106 to 108 °C.

`CCCc1nc2c(N)nc3cc(-c4ccccc4)ccc3c2n1CCCC(C)=NOC` showed a melting point of 191 to 192 °C.

The molecule `CCOC(=O)c1cc(=O)c2ccc(C)cc2o1` gave a melting point of 62 to 64 °C.

`CC(C)CCCC(C)C1CCC2C3=C(CCC21C)C1(C)CCC(O)CC1CC3=O` (stereo not drawn) came in with a melting point of 115 to 117 °C.

The molecule `CNC(=C[N+](=O)[O-])N(C)Cc1ccc(Cl)nc1` registered a melting point of 103 to 104 °C.

The molecule `COc1cc(C(C)=O)ccc1OCCCN1CCN(c2nn(C(=O)c3ccccc3)c3cc(F)ccc23)CC1` came in with a melting point of 138 to 140 °C.

The molecule `CC(O)=C1C(c2ccccc2)=C(c2ccc(S(C)(=O)=O)cc2)C1(Cl)Cl` came in with a melting point of 194 to 195 °C.

In turn, `O=C(NCC(F)F)/C(=C/c1ccc(OC(F)(F)F)cc1)NC(=O)c1ccc(OCCC(F)(F)F)cc1` yielded a melting point of 142 to 143 °C.

Turning to `CCCCn1c(-c2ccc(OC)cc2)nc2c3ccccc3ccc21`, the melting point lay within 99.5 to 100 °C.

In turn, `ClCc1cccc2cc(-c3ccccc3)oc12` registered a melting point of 72 to 73 °C.

As to `CCCCCCC(C)(C)c1cc(O)c2c(c1)oc(=O)c1ccc(OC)cc12`, the melting point was in the range of 149 to 151 °C.

In turn, `Cc1nc(S(=O)Cc2ccc(Cl)cc2)nc2c1CCCC2` (stereo not drawn) yielded a melting point of 127 °C.

Consider `Cc1ccc([N+](=O)[O-])cc1S(=O)(=O)N1CCOCC1`, for which the melting point is 114 to 115 °C.

Molecule `Nc1nc(/C(=N/OCC(=O)OC(c2ccccc2)c2ccccc2)C(=O)O)cs1` gave a melting point of 125 °C.

As to `CC(C)(CO)c1ccc(C(=O)Nc2cn3cc(-c4ccsc4)ccc3n2)cc1`, the melting point lay in the range of 250 to 252 °C.

Consider `CCCNc1nc(-c2ccc(OC)c(OC)c2)nc2sc(C#N)c(C)c12`, for which the melting point was 179 to 181 °C.

Turning to `COc1cccc(C(O)c2cc(Cl)ccc2N(CC(N)=O)S(=O)(=O)c2ccc(OC)c(OC)c2)c1` (stereo not drawn), the melting point was 100 °C.

With `COc1cc(C(=O)CCCN2CCC(OC(=O)c3cc(Cl)c(N)c4c3OCC4)C(OC)C2)cc(OC)c1OC` (stereo not drawn), the melting point stood at 132 °C.

For `Sc1nnnn1CCCc1ccccc1`, the melting point was in the range of 75 to 76 °C.

Turning to `Cc1ccc(S(=O)(=O)N(O)S(=O)(=O)c2ccc(C)cc2)cc1`, the melting point was 125 to 126 °C.

The molecule `CC(=O)Oc1cc2c(cc1C=O)C1CCC3(C)C(O)CCC3C1CC2` (stereo not drawn) had a melting point of 73 to 75 °C.

As to `CC(C)(Oc1ccc(OCc2cccc3c2cnn3-c2ccc(C(F)(F)F)cc2)cc1)C(=O)O`, the melting point fell in the range of 128 to 130 °C.

For the origin of these results see a melting point compilation (Tetko et al.; mined from patent text by program, amines drawn as free bases though some values may be those of a salt).
